Reference: patent US20050209157A1, “Short bioactive peptides and methods for their use” (priority 2001, published 2005)
“Also recorded” adds a separate entry of the source. Read-outs that look alike come from different tables or passages of the source. No end group written: not given here.

Key:
[1] = system: Stapholococcus aureus ATCC 25923; assay: Antimicrobial assay I, modified protocol (tryptic soy broth), MBC; details: minimum bactericidal concentration, Table 4
Procedure: (§2) The preparation of all media, stock solutions, and dilutions took place in a laminar flow hood to prevent contamination. Bacterial cells were freshly grown on antibiotic medium 2 agar slants (pH 7.0 at 25° C.). Bacteria were suspended and diluted in antibiotic medium 3 to about 10^4 cfu/ml and used as the inoculum. Sample solutions (100 μl/well) were added to plates according to the plate layout. Inoculum (100 μl/well) was added to achieve a final concentration of 5×10^3 cfu/ml. Negative controls received 100 μl saline and 100 μl growth medium. Positive controls received 100 μl saline and 100 μl inoculum. Bacterial plates were incubated at 37° C. for 24 hours.
(§3) However, the data for Table 4 were obtained with a modified protocol wherein the medium was tryptic soy broth, inocolum strength was approximately 10^4 CFU per ml, and values determined were minimum bactericidal concentrations (MBC) or minimum fungicidal concentrations (MFC).
(§4) MBC or MFC values are in μg/mL. E. coli is Escherichia coli ATCC accession number 25922; P. aerug is Pseudomonas aeruginosa ATCC accession number 27853, S. aur. is Stapholococcus aureus ATCC accession number 25923; Candida is Candida albicans ATCC accession number 10231.

[2] = system: Candida albicans ATCC 10231; assay: Antimicrobial assay I, modified protocol (tryptic soy broth), MFC; details: minimum fungicidal concentration, Table 4
fungal = assay: Presently preferred antifungal peptides, selected from the MIC/MBC data; assay type: cell-based; details: X = preferred
From the text: The peptide's “length” is the number of amino acid residues in the sequence.

[3] = system: Pseudomonas aeruginosa ATCC 27853; assay: Antimicrobial assay I, modified protocol (tryptic soy broth), MBC; details: minimum bactericidal concentration, Table 4
Procedure: as §2, §3, §4

[4] = system: Escherichia coli ATCC 25922; assay: as above; details: minimum bactericidal concentration, Table 4
in vitro [5] = assay type: cell-based, human; details: human, human red blood cells
in vitro [6] = details: human, WI38 normal lung fibroblast cells, WI-38 LD50, Table 26, valine substitution
Procedure: (§5) Viability of cells is determined by the dye response. In the following procedure, approximately 1.5×10^4 cells per well were added and viability was determined with the cells in a semi-confluent state. The assay was performed in a 96-well microtiter plate. After addition of peptide, the plate was set for 24 hours. MTT (5 mg/ml in phenol red-free RPMI-1640, 20 μl) was added to each well including positive control wells untreated with peptide. The plate was incubated at 37° C. for 4 hours. The liquid contents of each well was removed, and isopropanol with 0.1 M HCl (100 μl) was added to each well. The plate was sealed with parafilm to prevent evaporation of the isopropanol. The plate is allowed to rest for 5-10 minutes in order to solubilize the precipitate. Purified water (100 μl) was added to each well. Absorbance was determined with an ELISA Reader instrument. Color intensity at 540 nm is proportional to viability of cells.
(§6) WI38 (ATCC No. CCL75) is a normal fibroblast line of lung diploid cells, MCF7 (ATCC No. HTB22) is a breast adenocarcinoma tumor cell line, SW480 (ATCC No. CCL228) is a colon adenocarcinoma tumor cell line, BMKC is a cloned melanoma line derived from Bowes melanoma line HMCB (ATCC No. CRL9607), H1299 (ATCC No. CRL5803) is a lung large cell carcinoma tumor line, HeLaS3 (ATCC No. CCL2.2) is a cervical epitheleal carcinoma tumor cell line, and PC3 (ATCC No. CRL1435) is a prostate adenocarcinoma tumor cell line.

[7] = system: yeast (Saccharomyces cerevisiae); assay: Antimicrobial assay I, yeast assay in RPMI 1640; assay type: cell-based; details: RPMI 1640 media
[8] = system: Staphylococcus aureus ATCC 6538; assay: Antimicrobial assay I, MIC by OD measurement; assay type: cell-based; details: 37° C. for 24 hours, absorbance 620 nm
[9] = system: Pseudomonas aeruginosa ATCC 9027; assay: Antimicrobial assay I, MIC by OD measurement; assay type: cell-based
[10] = system: hairless rat skin burn wound; assay: In vivo wound healing, TCA chemically induced skin burn wound
From the text: The hairless rat was chosen as a suitable test model. Female hairless rats of 100 to 150 grams weight and 8 to 12 weeks age were used in the study.
As an alternative, 70% trichloroacetic (TCA) dissolved in 70% ethanol was employed to induce the dermal erosion patches. […] As the chemical burn agent, the TCA treatment inflicted on the rats far less trauma and mortality than occurred with the Phenol model.
The experimental Protocol procedure steps were as follows: • 1. The animal was anesthetized (40 mg/kg Phenobarbital). • 2. Color photographs of the animal's back (with six separate peels) were taken before each treatment and daily thereafter. • 3. Rat skin surface was prepared by wiping with 70% ethanol. Filter paper discs (1.1 cm diameter) were soaked in 70% TCA/ethanol. • 4. The discs were placed on the back of the hairless rat for 30 minutes [6 disks providing for 2 control (no peptide treatment) disks and 4 disks for peels to receive peptide treatment.] • 5. After a 30 minute burn the discs were removed. Twenty four hours later, different peptide solutions (1500 ppm in saline) were applied to four peels, and saline was applied to the two control peels. • 6. Peptide solutions (and saline for the controls) were applied to the six wounds with a soft brush each day thereafter. • 7. It took approximately one month for the wounds to heal (complete skin closure with stabilized epidermis), after which the animal was sacrificed. • 8. The treated skin was harvested, section stained with trichrome, and mounted on slides.
The percentage of wound closure for each peel (six sites) was measured each day until the animal was sacrificed. The percentage closure was determined by measuring on the animal photographs the area of the remaining scab relative to the area of the initial scar after the burn. These measurements were made by digitizing and analyzing the peels using the Sigma Plot ProScan 4 program.
This provided a measure of the post-TCA burn treatment of the inflammatory response in each peel site.
The extent of epidermal thickening (hyperkeratosis) at each site was also determined by measurement with the Sigma Plot program applied to the stained section slides of the various wound areas and the normal untreated skin (control) surrounding the peels. At magnifications of 100× to 320×, the microphotographs of the color slides provided a powerful tool for such quantification of the extent of hyperkeratosis evident in each peel.
Treatment of the section slides with selective stains produced identifiable evidence of the presence of both leukocyte and fibroblast cells in the wound areas. This was also quantified by the Sigma Plot program.
The above described animal model and protocols were employed in the testing of approximately 20 of the peptides listed in Table 48 (and other peptides for comparison) as preferred FLAK peptides for wound healing.

[11] = system: human red blood cells (RBC); assay: in vitro; assay type: cell-based; details: hemolytic assay, concentration at 50% hemolysis, 1 hour at 37° C.
PC3 = assay: Anti-cancer assay, MTT, LD50; assay type: cell-based; details: 24 hours with peptide, prostate adenocarcinoma
From the text: (§1) Numbers are LD50 values (μg/mL).

H1299 = assay: Anti-cancer assay, MTT, LD50; assay type: cell-based; details: 24 hours with peptide, lung large cell carcinoma
From the text: as §1

BMKC = assay: Anti-cancer assay, MTT, LD50; assay type: cell-based; details: BMKC cloned melanoma line, 24 hours with peptide
From the text: as §1

MCF7 = assay: Anti-cancer assay, MTT, LD50; assay type: cell-based; details: MCF7 breast adenocarcinoma line, MTT, 24 hours with peptide
From the text: as §1

HeLaS3 = assay: Anti-cancer assay, MTT, LD50; assay type: cell-based; details: 24 hours with peptide, cervical carcinoma
From the text: as §1

SW480 = assay: Anti-cancer assay, MTT, LD50; assay type: cell-based; details: SW480 colon adenocarcinoma line, 24 hours with peptide
From the text: as §1

[12] = pH 7, Table 26, valine substitution, read-out: Hemolysis RBC LD50
[13] = rat model, TCA burn treated by peptide

Procedure for WI38: as §5, §6

Substance	MBC S. aur A.25923 [1]	MFC Candida A.10231 [2]	Anti-fungal (preferred peptide) (fungal)	MBC P. aerug A.27853 [3]	MBC E. coli A.25922 [4]	further results
FAKLLALALKKAL-NH2 [compound 97]	25 µg/mL	25 µg/mL	X (Preferred antifungal peptides can be selected as having MIC or MBC values of less than or equal to about 25 μg/ml)	>50 µg/mL	25 µg/mL	–
KYKKALKKLAKLL-NH2 [compound 146]	75 µg/mL	10 µg/mL	X (Preferred antifungal peptides can be selected as having MIC or MBC values of less than or equal to about 25 μg/ml)	>250 µg/mL	10 µg/mL	–
FALKALKKAL-NH2 [compound 170]	150 µg/mL	25 µg/mL	X (Preferred antifungal peptides can be selected as having MIC or MBC values of less than or equal to about 25 μg/ml)	>250 µg/mL	25 µg/mL	–
FAKLLAKALKKAL-NH2 [compound 102]	25 µg/mL	15 µg/mL	X (Preferred antifungal peptides can be selected as having MIC or MBC values of less than or equal to about 25 μg/ml)	30 µg/mL	25 µg/mL	–
FAKKLAKKLAKAL-NH2 [compound 74]	>55 µg/mL	>55 µg/mL	X (Preferred antifungal peptides can be selected as having MIC or MBC values of less than or equal to about 25 μg/ml)	50 µg/mL	>55 µg/mL	–
FALALKLAKKAL-NH2 [compound 167]	10 µg/mL	25 µg/mL	X (Preferred antifungal peptides can be selected as having MIC or MBC values of less than or equal to about 25 μg/ml)	>250 µg/mL	25 µg/mL	–
FALKALKKLKKALKKAL-NH2 [compound 153]	5 µg/mL	25 µg/mL	X (Preferred antifungal peptides can be selected as having MIC or MBC values of less than or equal to about 25 μg/ml)	25 µg/mL	10 µg/mL	–
FALALKALKKL-NH2 [compound 165]	25 µg/mL	10 µg/mL	X (Preferred antifungal peptides can be selected as having MIC or MBC values of less than or equal to about 25 μg/ml)	25 µg/mL	10 µg/mL	HC50 at 1 h (in vitro [5]; [12]): 350 µg/mL; CC50 at 24 h (in vitro [6]): 850 µg/mL
FAKLLAKALKKL-NH2 [compound 103]	>50 µg/mL	25 µg/mL	X (Preferred antifungal peptides can be selected as having MIC or MBC values of less than or equal to about 25 μg/ml)	30 µg/mL	30 µg/mL	–
MPKEKVFLKIEKMGRNIRN-NH2 [P107, reference compound]	–	–	–	–	–	WI38 LD50 (WI38; MTT, 24 hours with peptide, normal fibroblast line): > (> indicates greater than 1000); LD50 WI38 (WI38; WI38 normal lung fibroblast line, MTT, 24 hours with peptide): > (> indicates greater than 1000); yeast (MIC or MFC) [7]: > (> indicates greater than 200 μg/mL); staph6538 (MIC) [8]: > (> indicates greater than 200 μg/mL); paerug9027 (MIC) ([9]; 37° C. for 24 hours, absorbance 620 nm): > (> indicates greater than 200 μg/mL); rate of wound closure ([10]; hairless rat, full wound closure at 26 days): small advantage in rate of wound closure over the other peptides and no peptide; ability to limit post-TCA burn inflammatory responses ([10]; hairless rat, peptide solutions 1500 ppm in saline, topical daily): superior in this respect; hyperkeratosis (epidermal thickening) ([10]; hairless rat, peptide solutions 1500 ppm in saline, topical daily, listed as SEQ ID NO:71): lowest evidence of hyperkeratosis (epidermal thickening); also recorded: substantially no hyperkeratosis as compared to the TCA burn untreated control; Epidermal thickening [10, 13]: 33 % of control (TCA only); Fibroblast cells in test area [10, 13]: 420 % of normal skin; Inflammatory response area [10, 13]: 0 % of healed scar; Leukocyte cells in test area [10, 13]: 400 % of normal skin; Wound closure ([10]; rat model, TCA burn treated by peptide, 26 days): 100 % of initial wound; LD50 [11]: > (> indicates greater than 1000); PC3 LD50 (PC3): > (> indicates greater than 1000); H1299 LD50 (H1299): > (> indicates greater than 1000); LD50 BMKC (BMKC): > (> indicates greater than 1000); LD50 MCF7 (MCF7): > (> indicates greater than 1000); HeLaS3 LD50 (HeLaS3): > (> indicates greater than 1000); LD50 SW480 (SW480): > (> indicates greater than 1000)
FKLAFKLAKKAFL-NH2 [compound 122]	25 µg/mL	15 µg/mL	X (Preferred antifungal peptides can be selected as having MIC or MBC values of less than or equal to about 25 μg/ml)	30 µg/mL	30 µg/mL	–
FALALKALKKAL-NH2 [compound 144]	25 µg/mL	25 µg/mL	X (Preferred antifungal peptides can be selected as having MIC or MBC values of less than or equal to about 25 μg/ml)	25 µg/mL	10 µg/mL	–
VAKLLAKLAKKVL-NH2 [compound 154]	>250 µg/mL	25 µg/mL	X (Preferred antifungal peptides can be selected as having MIC or MBC values of less than or equal to about 25 μg/ml)	100 µg/mL	50 µg/mL	WI38 LD50 (WI38; Table 27): 110 µg/mL; P. aerug (MIC) [9]: 100 µg/mL; HC50 at 1 h (in vitro [5]; [12]): 870 µg/mL; HC50 at 1 h (in vitro [5]; pH 7, Table 27, read-out: Hemolysis (LD50)): 450 µg/mL; CC50 at 24 h (in vitro [6]): 110 µg/mL
